Data as given in publication PMC10967822, “Antimicrobial Indole-3-Carboxamido-Polyamine Conjugates Target Bacterial Membranes and Are Antibiotic Potentiators” (Biomolecules, 2024).
Values after ≈ are worked out from the molar mass of the structure shown. Read-outs that look alike come from different tables or passages of the source. Marks after values point to notes of the source that are not given here.

Experiments:
S. aureus ATCC 25923 = test: MIC, broth dilution, S. aureus; format: cell-based, Staphylococcus aureus; conditions: Staphylococcus aureus, ATCC25923; S. aureus ATCC 25923, 18 h; read-out: MIC Sa
[1] = test system: K. pneumoniae ATCC 700603; test: MIC, broth microdilution (CO-ADD), K. pneumoniae; conditions: top dose 32 µg/mL
C. albicans ATCC 90028 = test: Antifungal MIC (CO-ADD), C. albicans; format: cell-based; conditions: Candida albicans, ATCC90028, top dose 32 µg/mL
Experimental: (§1) For the antifungal assay, fungi strains were cultured for 3 days on YPD agar at 30 °C. A yeast suspension of 1 × 10^6 to 5 × 10^6 CFU/mL was prepared from five colonies. These stock suspensions were diluted with a yeast nitrogen base (YNB) (Becton Dickinson, 233520, New South Wales, Australia) broth to a final concentration of 2.5 × 10^3 CFU/mL. […] The plates were covered and incubated at 35 °C for 36 h without shaking. C. albicans MICs were determined by measuring the absorbance at OD530. For C. neoformans, resazurin was added at a 0.006% final concentration to each well and incubated for a further 3 h before the MICs were determined by measuring the absorbance at OD570–600. […] Fluconazole was used as a positive fungal inhibitor standard for C. albicans and C. neoformans. […] The quality control (QC) of the assays was determined by the antimicrobial controls and the Z′-factor (using positive and negative controls).

A. baumannii ATCC 19606 = test: MIC, broth microdilution (CO-ADD), A. baumannii; format: cell-based, Acinetobacter baumannii
E. coli ATCC 25922 [2] = test: Erythromycin potentiation against E. coli; format: cell-based, Escherichia coli; conditions: erythromycin at 2 µg/mL (2.7 µM); for Erythro/Ec fold-change (intrinsic MIC / combination MIC): E. coli; for Erythro/Ec: concentration required to restore erythromycin activity (combination MIC): mean n = 3
Source text: (§2) These measurements were independently repeated in triplicate.

E. coli ATCC 25922 [3] = test: MIC, broth dilution, E. coli; format: cell-based, Escherichia coli; conditions: E. coli ATCC 25922, 18 h
human red blood cells = test: Hemolytic assay; format: cell-based; conditions: 10% hemolytic activity, mean n = 2
Experimental: Human whole blood was washed three times with three volumes of 0.9% NaCl and then resuspended in the same solution to a concentration of 0.5 × 10^8 cells/mL, as determined by the manual cell count in a Neubauer hemocytometer. The washed cells were then added to the 384-well compound-containing plates for a final volume of 50 μL. After a 10 min shake on a plate shaker, the plates were then incubated for 1 h at 37 °C. After incubation, the plates were centrifuged at 1000× g for 10 min to pellet cells and debris; 25 μL of the supernatant was then transferred to a polystyrene 384-well assay plate. Hemolysis was determined by measuring the supernatant absorbance at […] (OD405). The absorbance was measured using a Tecan M1000 Pro monochromator plate reader. HC10 and HC50 (concentrations at 10% and 50% hemolysis, respectively) were calculated by a curve fitting the inhibition values vs. log (concentration) using a sigmoidal dose–response function with variable fitting values for the top, bottom, and slope.

P. aeruginosa ATCC 27853 [4] = test: MIC, broth dilution, P. aeruginosa; format: cell-based, Pseudomonas aeruginosa; conditions: P. aeruginosa ATCC 27853, 18 h, read-out: MIC Pa
P. aeruginosa ATCC 27853 [5] = test: Doxycycline potentiation against P. aeruginosa; format: cell-based, Pseudomonas aeruginosa; conditions: doxycycline at 2 µg/mL (4.5 µM); for Dox/Pa fold-change (intrinsic MIC / combination MIC): P. aeruginosa ATCC 27853; for Dox/Pa: concentration required to restore doxycycline activity (combination MIC): P. aeruginosa ATCC 27853, mean n = 3
Source text: as §2

MRSA ATCC 43300 = test: MIC, broth microdilution (CO-ADD), MRSA; format: cell-based, methicillin-resistant S. aureus; conditions: Staphylococcus aureus, read-out: MIC MRSA
[6] = Cytotoxicity assay (resazurin); format: cell-based; conditions: human, HEK293 cells, mean n = 2
[7] = test system: C. neoformans ATCC 208821; test: Antifungal MIC (CO-ADD), C. neoformans; format: cell-based; conditions: Cryptococcus neoformans, ATCC208821, top dose 32 µg/mL
Experimental: as §1

[8] = Acinetobacter baumannii, ATCC19606, top dose 32 µg/mL
[9] = Pseudomonas aeruginosa, ATCC27853
[10] = MRSA ATCC 43300, top dose 32 µg/mL

Compound	MIC (S. aureus ATCC 25923)	MIC Kp [1]	MIC (C. albicans ATCC 90028)	MIC (A. baumannii ATCC 19606; [8])	Erythro/Ec fold-change (intrinsic MIC / combination MIC) (E. coli ATCC 25922 [2])	Erythro/Ec: concentration required to restore erythromycin activity (combination MIC) (E. coli ATCC 25922 [2])	MIC (E. coli ATCC 25922 [3]; Escherichia coli, ATCC25922)	Hemolysis HC10 (human red blood cells)	MIC (P. aeruginosa ATCC 27853 [4]; [9])	Dox/Pa fold-change (intrinsic MIC / combination MIC) (P. aeruginosa ATCC 27853 [5])	Dox/Pa: concentration required to restore doxycycline activity (combination MIC) (P. aeruginosa ATCC 27853 [5])	MIC (MRSA ATCC 43300; [10])	IC50 at 20 h [6]	MIC [7]	MIC (MRSA ATCC 43300)	MIC (A. baumannii ATCC 19606; top dose 32 µg/mL)	MIC (E. coli ATCC 25922 [3])	MIC (P. aeruginosa ATCC 27853 [4])
O=C(N[C@H](CO)[C@H](O)c1ccc([N+](=O)[O-])cc1)C(Cl)Cl [Chloramphenicol, reference compound]	1.5 to 3 µM (≈ 0.485 to 0.969 µg/mL)	–	–	–	–	–	–	–	–	–	–	–	–	–	–	–	–	–
O=C(NCCCNCCCCNCCCNC(=O)c1c[nH]c2ccccc12)c1c[nH]c2ccccc12 [Compound 12a]	69.8 µM (≈ 34.1 µg/mL)	>45 ^j µM	> 45 µM	> 45 µM	4 fold	34.9 µM	139 µM (≈ 67.9 µg/mL)	>45 µM	> 279 µM	> 8 fold	34.9 µM	22.3 µM (≈ 10.9 µg/mL)	> 45 µM	–	–	–	–	–
O=C(NCCCNCCCCCCCCNCCCNC(=O)c1c[nH]c2ccccc12)c1c[nH]c2ccccc12.O=C(O)C(F)(F)F.O=C(O)C(F)(F)F [Compound 12d]	64.7 µM	>41 µM	> 41 µM	> 41 µM	–	–	32.4 µM	>41 µM	> 259 µM	> 8 fold	32.3 µM	≤ 0.32 µM	> 41 µM	≤ 0.32 µM	–	–	–	–
COc1ccc2[nH]cc(C(=O)NCCCNCCCCNCCCNC(=O)c3c[nH]c4ccc(OC)cc34)c2c1 [Compound 14a]	257 µM (≈ 141 µg/mL)	>41 µM	> 41 µM	> 41 µM	1 fold	257 µM	257 µM (≈ 141 µg/mL)	>41 µM	> 257 µM	> 4 fold	64.4 µM	10.3 µM (≈ 5.65 µg/mL)	> 41 µM	–	–	–	–	–
COc1ccc2[nH]cc(C(=O)NCCCNCCCCCCCNCCCNC(=O)c3c[nH]c4ccc(OC)cc34)c2c1.O=C(O)C(F)(F)F.O=C(O)C(F)(F)F [Compound 14c]	122 µM	>39 µM	> 39 µM	> 39 µM	> 1 fold	244 µM	> 244 µM	>39 µM	> 244 µM	> 4 fold	61.1 µM	> 39 µM	> 39 µM	–	–	–	–	–
O=C(NCCCNCCCCNCCCNC(=O)c1c[nH]c2c(F)cccc12)c1c[nH]c2c(F)cccc12 [Compound 16a]	> 266 µM	>43 µM	> 43 µM	> 43 µM	1 fold	> 266 µM	> 266 µM	>43 µM	266 µM (≈ 140 µg/mL)	1 fold	266 µM	> 43 µM	> 43 µM	–	–	–	–	–
O=C(NCCCNCCCCCCNCCCNC(=O)c1c[nH]c2c(F)cccc12)c1c[nH]c2c(F)cccc12 [Compound 16b]	256 µM (≈ 141 µg/mL)	>41 µM	> 41 µM	> 41 µM	2 fold	128 µM	256 µM (≈ 141 µg/mL)	>41 µM	> 256 µM	> 4 fold	64.0 µM	> 41 µM	> 41 µM	–	–	–	–	–
COc1cccc2c(C(=O)NCCCNCCCCNCCCNC(=O)c3c[nH]c4c(OC)cccc34)c[nH]c12 [Compound 17a]	129 µM (≈ 70.8 µg/mL)	>41 µM	> 41 µM	> 41 µM	1 fold	> 257 µM	> 257 µM	>41 µM	> 257 µM	> 2 fold	129 µM	20.6 µM (≈ 11.3 µg/mL)	> 41 µM	–	–	–	–	–
COc1cccc2c(C(=O)NCCCNCCCCCCNCCCNC(=O)c3c[nH]c4c(OC)cccc34)c[nH]c12 [Compound 17b]	124 µM (≈ 71.5 µg/mL)	>40 µM	> 40 µM	> 40 µM	1 fold	> 248 µM	248 µM (≈ 143 µg/mL)	>40 µM	> 248 µM	1 fold	> 248 µM	> 40 µM	> 40 µM	–	–	–	–	–
Cc1cccc2c(C(=O)NCCCNCCCCNCCCNC(=O)c3c[nH]c4c(C)cccc34)c[nH]c12 [Compound 18a]	> 269 µM	>43 µM	> 43 µM	> 43 µM	1 fold	> 269 µM	> 269 µM	>43 µM	269 µM (≈ 139 µg/mL)	1 fold	269 µM	21.5 µM (≈ 11.1 µg/mL)	> 43 µM	–	–	–	–	–
OC(Cn1cncn1)(Cn1cncn1)c1ccc(F)cc1F [Fluconazole, reference compound]	–	–	0.4 µM (≈ 0.123 µg/mL)	–	–	–	–	–	–	–	–	–	–	26 µM (≈ 7.96 µg/mL)	–	–	–	–
[H]/N=C(/N)N[C@H]1[C@H](O)[C@@H](O)[C@H](O[C@@H]2O[C@@H](C)[C@](O)(C=O)[C@H]2O[C@@H]2O[C@@H](CO)[C@H](O)[C@@H](O)[C@@H]2NC)[C@@H](N/C(N)=N\[H])[C@@H]1O [Streptomycin, reference compound]	21.5 µM (≈ 12.5 µg/mL)	–	–	–	–	–	21.5 µM (≈ 12.5 µg/mL)	–	21.5 µM (≈ 12.5 µg/mL)	–	–	–	–	–	–	–	–	–
CN[C@H](CC(C)C)C(=O)N[C@H]1C(=O)N[C@@H](CC(N)=O)C(=O)N[C@H]2C(=O)N[C@H]3C(=O)N[C@H](C(=O)N[C@H](C(=O)O)c4cc(O)cc(O)c4-c4cc3ccc4O)[C@H](O)c3ccc(c(Cl)c3)Oc3cc2cc(c3O[C@@H]2O[C@H](CO)[C@@H](O)[C@H](O)[C@H]2O[C@H]2C[C@](C)(N)[C@H](O)[C@H](C)O2)Oc2ccc(cc2Cl)[C@H]1O [Vancomycin, reference compound]	–	–	–	–	–	–	–	–	–	–	–	–	–	–	0.7 µM (≈ 1.01 µg/mL)	–	–	–
C[C@H]1c2cccc(O)c2C(=O)C2=C(O)[C@]3(O)C(=O)C(C(N)=O)=C(O)[C@@H](N(C)C)[C@@H]3[C@@H](O)[C@@H]21 [doxycycline, reference compound]	–	–	–	–	–	–	–	–	90 µM (≈ 40 µg/mL)	–	–	–	–	–	–	–	–	–
CC[C@H]1OC(=O)[C@H](C)[C@@H](O[C@H]2C[C@@](C)(OC)[C@@H](O)[C@H](C)O2)[C@H](C)[C@@H](O[C@@H]2O[C@H](C)C[C@H](N(C)C)[C@H]2O)[C@](C)(O)C[C@@H](C)C(=O)[C@H](C)[C@@H](O)[C@]1(C)O [erythromycin, reference compound]	–	–	–	–	–	–	174 µM (≈ 128 µg/mL)	–	–	–	–	–	–	–	–	–	–	–
CC/C(=C(\c1ccccc1)c1ccc(OCCN(C)C)cc1)c1ccccc1 [tamoxifen, reference compound]	–	–	–	–	–	–	–	–	–	–	–	–	24 µM	–	–	–	–	–
Colistin [reference compound]	–	0.2 µM	–	–	–	–	–	–	–	–	–	–	–	–	–	0.2 µM	2 µM	1 µM
